We go through seven compounds from patent US9969743B2, “Urea and amide derivatives of aminoalkylpiperazines and use thereof” (Southern Research Institute, priority 2012, dated 2018).

Test [1] has as its target human D2 dopamine receptors (HEK cells) (Homo sapiens (Human), UniProt P14416). Kind of test: Whole cell adenylyl cyclase assay, D2. The test is classed as cell-based. Particulars: inhibition of forskolin (100 μM) stimulated cAMP, normalized to quinpirole; conc >10× Ki, per compound in Conc (nM); mean ± S.E.M. Here is the method:
Functional Activity. Whole cell adenylyl cyclase assay. The intrinsic activity of the compounds was evaluated by determining their ability to inhibit forskolin-dependent (100 μM) stimulation of adenylyl cyclase activity using a whole cell assay. A whole cell-cyclic AMP accumulation assay was performed with stably transfected HEK cells expressing human D2 or D3 dopamine receptors. This assay is an adaptation of an earlier published method (Su et al., Cyclic Nucleotide Res. 1976, 2, 257-285). Details regarding this method have been published (Chu, W. et al. Bioorg. Med. Chem. 2005, 13, 77-87; Taylor, M. et al. Synapse 2010, 64, 251-266). Confluent (60-80%) HEK cells transfected with recombinant D2-like dopamine receptors were grown in DMEM/10% fetal calf serum containing geneticin in […]. The endogenous ATP pool is radioactively labeled by preincubating the cells in serum-free DMEM/25 mM Hepes medium containing 2 μCi/mL of [2,8-^3H]-adenine (20-Ci/mmol) in a 5% CO2 incubator at 37° C. for 75 min. The radioactive medium was removed by aspiration. Serum-free DMEM (5.6 mL) containing 25 mM HEPES, pH 7.4, and 0.1 mM of the phosphodiesterase inhibitor isobutylmethylxanthine was added to the flask. A 400-μL aliquot of cells was removed and added to 50 μL of forskolin (100 μM) and 50 μL of test drug or quinpirole in DMEM-HEPES. The cells were incubated for 20 min at 37° C. (vortexing every 5 min). The reaction was terminated by the addition of 0.5 mL of 10% trichloroacetic acid (w/v) containing 1.0 mM unlabeled cyclic AMP as a recovery standard. Both the [^3H]-cyclic AMP and the [^3H]-ATP fractions were collected following separation using columns of Dowex AG-50W-X4 and alumina. The final yield of [^3H]-cyclic AMP is corrected for column recovery of unlabeled cyclic AMP determined spectrophotometrically (OD259). The results are reported as percent conversion of [^3H]-ATP into [^3H]-cyclic AMP. The values for the percent inhibition are reported as the actual percent of inhibition of the ^3H-cAMP accumulation relative to the assay performed in the absence of a test compound, minus basal activity. […] The percent maximum response is the value for the inhibition normalized to the value for the full agonist quinpirole.

Test [2] addresses human D3 dopamine receptor (Homo sapiens (Human), UniProt P35462). As to the kind of experiment: Radioligand binding (125I-IABN competition), D3 dopamine receptor. Particulars: for Ki: 125I-IABN competition, membranes of stably transfected HEK cells, 37° C. 60 min, Cheng and Prusoff; for D2/D3 (D3 selectivity ratio, D2 Ki/D3 Ki): calculated from binding Ki values. Here is the method:
(§1) Binding Affinity. The affinities of the target compounds were determined using radioligand binding experiments.
(§2) Competition curves were modeled for a single site. Data from competition dose-response curves were analyzed using Tablecurve program (Jandel). IC50 values were converted to equilibrium dissociation constants (Ki values) using the Cheng and Prusoff correction.

In test [3] the target is human D2-long dopamine receptor (Homo sapiens (Human), UniProt P14416). Kind of test: Radioligand binding (125I-IABN competition), D2-long dopamine receptor. Particulars: membranes of stably transfected HEK cells, 37° C. 60 min, Cheng and Prusoff. Here is the method:
as §1, §2

A word on the Ki: it is a dissociation constant, usually derived from enzyme kinetics or from competition with a known ligand. High values mean lower affinity, low ones higher affinity.

Sequence of human D2 dopamine receptors (HEK cells) (P14416 whole entry): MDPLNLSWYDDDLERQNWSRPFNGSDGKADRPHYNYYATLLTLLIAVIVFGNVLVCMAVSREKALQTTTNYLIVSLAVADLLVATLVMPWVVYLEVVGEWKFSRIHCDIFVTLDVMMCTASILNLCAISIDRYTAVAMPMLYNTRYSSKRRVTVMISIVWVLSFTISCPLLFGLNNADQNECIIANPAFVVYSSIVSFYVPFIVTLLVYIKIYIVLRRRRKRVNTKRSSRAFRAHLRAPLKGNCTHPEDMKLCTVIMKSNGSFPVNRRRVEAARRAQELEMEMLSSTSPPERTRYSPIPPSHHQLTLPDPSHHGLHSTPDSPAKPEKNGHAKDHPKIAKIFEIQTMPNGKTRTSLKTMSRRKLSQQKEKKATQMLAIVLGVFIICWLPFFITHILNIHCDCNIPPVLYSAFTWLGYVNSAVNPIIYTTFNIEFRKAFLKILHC
Sequence of human D2-long dopamine receptor (P14416 whole entry): as above
Sequence of human D3 dopamine receptor (P35462 whole entry): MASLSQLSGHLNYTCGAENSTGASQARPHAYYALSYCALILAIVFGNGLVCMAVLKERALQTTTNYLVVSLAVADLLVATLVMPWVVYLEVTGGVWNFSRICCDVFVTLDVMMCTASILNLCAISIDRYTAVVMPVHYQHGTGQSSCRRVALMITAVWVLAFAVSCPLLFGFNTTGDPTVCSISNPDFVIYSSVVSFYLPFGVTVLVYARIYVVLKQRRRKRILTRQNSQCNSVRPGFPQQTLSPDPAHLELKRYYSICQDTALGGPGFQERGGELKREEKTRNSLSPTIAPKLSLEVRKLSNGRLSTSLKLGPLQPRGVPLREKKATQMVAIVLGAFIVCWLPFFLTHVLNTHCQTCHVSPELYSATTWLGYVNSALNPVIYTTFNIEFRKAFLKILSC

For the compound `CC(C)(C)c1nc(N2CCN(CCCCNC(=O)N3CCN(c4ccccc4)CC3)CC2)c2ccccc2n1` [Compound 13, N-(4-(4-(2-(tert-Butyl)quinazolin-4-yl)piperazin-1-yl)butyl)-4-phenylpiperazine-1-carboxamide], the “D2 Cyclase % Inhibition Normalized” value in test [1] was “Insoluble”.
On to `CC(C)(C)c1nc(N2CCN(CCCCNC(=O)N3CCC(c4ccccc4)CC3)CC2)cc(C(F)(F)F)n1` [Compound 48, N-(4-(4-(2-(tert-Butyl)-6-(trifluoromethyl)pyrimidin-4-yl)piperazin-1-yl)butyl)-4-phenylpiperidine-1-carboxamide], for which the “D2 Cyclase % Inhibition Normalized” value in test [1] was “Insoluble”.
On to `CC(C)(C)c1cc(N2CCN(CCCCNC(=O)N3CCc4c([nH]c5ccccc45)C3)CC2)nc(C(C)(C)C)n1` [Compound 56, N-(4-(4-(2,6-Di-tert-butylpyrimidin-4-yl)piperazin-1yl)butyl)-1,3,4,9-tetrahydro-2H-pyrido[3,4-b]indole-2-carboxamide], for which, in test [2], the affinity corresponds to a Ki of 9.5 ± 1.7 nM and the “D2/D3 (D3 selectivity ratio, D2 Ki/D3 Ki)” value is 33. The compound further registered a Ki in test [3] of 308 ± 29.9 nM.
As for `CC(C)(C)c1cc(N2CCN(CCCCNC(=O)N3CCc4c([nH]c5ccccc45)C3)CC2)cc(C(C)(C)C)c1` [Compound 97, N-(4-(4-(3,5-Di-tert-butylphenyl)piperazin-1-yl)butyl)-1,3,4,9-tetrahydro-2H-pyrido[3,4-b]indole-2-carboxamide], in test [2], affinity was put at a Ki of 245 ± 46.4 nM and the “D2/D3 (D3 selectivity ratio, D2 Ki/D3 Ki)” value was 10. Moreover, the inhibitory constant (Ki) in test [3] was 2440 ± 175 nM.
On to `CC(C)(C)c1nc(C2CC2)cc(N2CCN(CCCCNC(=O)N3CCc4c([nH]c5ccccc45)C3)CC2)n1` [Compound 101, N-(4-(4-(2-(tert-Butyl)-6-cyclopropylpyrimidin-4-yl)piperazin-1-yl)butyl)-1,3,4,9-tetrahydro-2H-pyrido[3,4-b]indole-2-carboxamide], for which the inhibitory constant (Ki) is 57.1 ± 3.5 nM in test [2] and 789 ± 45.7 nM in test [3].
Take `CC(C)(C)c1nc(N2CCN(CCCCNC(=O)c3cn4ccncc4n3)CC2)cc(C(F)(F)F)n1` [Compound 115, N-(4-(4-(2-(tert-Butyl)-6-(trifluoromethyl)pyrimidin-4-yl)piperazin-1-yl)butyl)imidazo[1,2-a]pyrazine-2-carboxamide]: the “D2 Cyclase % Inhibition Normalized” value in test [1] is listed as “Insoluble”.
In the case of `CC(C)(C)c1nc(N2CCN(CCCCNC(=O)c3cn4nc(Cl)ccc4n3)CC2)cc(C(F)(F)F)n1` [Compound 116, N-(4-(4-(2-(tert-Butyl)-6-(trifluoromethyl)pyrimidin-4-yl)piperazin-1-yl)butyl)-6-chloroimidazo[1,2-b]pyridazine-2-carboxamide], in test [1], the “D2 Cyclase % Inhibition Normalized” value is “Insoluble”.
